Test results published in patent US20230092890A1, “1, 3, 4-Oxadiazole derivative compounds as histone deacetylase 6 inhibitor, and the pharmaceutical composition comprising the same” (Chong Kun Dang Pharmaceutical Corp., priority 2019, published 2023).

What was measured:
[1] = target: T1, HDAC6 human recombinant (Homo sapiens, UniProt Q9UBN7); test: HDAC enzyme activity inhibition (in vitro), HDAC6 assay; format: biochemical; settings: samples at 0.1, 1, 10, 100 and 1000 nM; 37° C. 60 minutes; fluorescence Ex 390, Em 460; read-out: HDAC6 IC50
T1 construct: purchased Calbiochem 382180
T1 sequence (Q9UBN7 1-1215): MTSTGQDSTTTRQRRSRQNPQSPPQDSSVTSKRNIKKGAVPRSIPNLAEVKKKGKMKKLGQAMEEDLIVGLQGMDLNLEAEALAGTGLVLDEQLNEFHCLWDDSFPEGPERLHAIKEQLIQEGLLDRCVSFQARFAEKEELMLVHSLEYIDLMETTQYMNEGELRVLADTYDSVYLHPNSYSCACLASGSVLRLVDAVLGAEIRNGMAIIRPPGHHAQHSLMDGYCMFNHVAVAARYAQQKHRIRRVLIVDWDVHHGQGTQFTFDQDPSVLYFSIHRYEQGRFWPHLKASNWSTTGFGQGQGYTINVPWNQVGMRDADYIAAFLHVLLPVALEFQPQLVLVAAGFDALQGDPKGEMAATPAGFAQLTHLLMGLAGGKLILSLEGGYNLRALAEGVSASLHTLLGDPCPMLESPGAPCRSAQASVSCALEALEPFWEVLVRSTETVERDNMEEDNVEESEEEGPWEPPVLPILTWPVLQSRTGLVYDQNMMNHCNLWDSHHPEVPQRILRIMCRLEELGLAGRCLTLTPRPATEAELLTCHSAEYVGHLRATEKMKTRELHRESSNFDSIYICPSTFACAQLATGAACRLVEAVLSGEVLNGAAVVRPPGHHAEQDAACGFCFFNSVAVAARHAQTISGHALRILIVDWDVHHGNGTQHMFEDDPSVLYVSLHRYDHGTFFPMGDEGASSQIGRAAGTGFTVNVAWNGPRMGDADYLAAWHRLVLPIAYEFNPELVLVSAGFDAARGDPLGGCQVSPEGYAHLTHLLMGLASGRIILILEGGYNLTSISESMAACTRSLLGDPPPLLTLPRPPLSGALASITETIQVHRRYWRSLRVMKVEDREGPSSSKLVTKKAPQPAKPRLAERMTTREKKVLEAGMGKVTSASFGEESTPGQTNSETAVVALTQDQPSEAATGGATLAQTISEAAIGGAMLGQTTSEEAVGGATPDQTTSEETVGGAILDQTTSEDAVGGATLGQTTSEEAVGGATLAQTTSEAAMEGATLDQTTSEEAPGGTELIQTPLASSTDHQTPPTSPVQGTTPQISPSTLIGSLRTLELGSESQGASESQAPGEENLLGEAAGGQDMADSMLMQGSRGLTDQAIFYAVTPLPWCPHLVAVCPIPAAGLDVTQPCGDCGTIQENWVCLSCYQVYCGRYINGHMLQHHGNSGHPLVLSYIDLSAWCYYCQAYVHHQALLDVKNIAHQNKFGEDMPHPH
Summary of the method: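 Fluorescence (Ex 390, Em 460) read after a 37° C, 60 min enzyme reaction and a further 30 min developer step at 37° C. Uses recombinant human HDAC6; HDAC1 arm dosed at 100, 1000, 10000 nM.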

[2] = target: T2, HDAC1 (Homo sapiens, UniProt Q13547); test: HDAC enzyme activity inhibition (in vitro), HDAC1 Fluorimetric Drug Discovery Assay Kit; format: biochemical; settings: samples at 100, 1000 and 10000 nM; 37° C. 60 minutes; fluorescence Ex 390, Em 460; read-out: HDAC1 IC50
T2 construct: purchased Enzolifesciences BML-AK511
T2 sequence (Q13547 whole entry): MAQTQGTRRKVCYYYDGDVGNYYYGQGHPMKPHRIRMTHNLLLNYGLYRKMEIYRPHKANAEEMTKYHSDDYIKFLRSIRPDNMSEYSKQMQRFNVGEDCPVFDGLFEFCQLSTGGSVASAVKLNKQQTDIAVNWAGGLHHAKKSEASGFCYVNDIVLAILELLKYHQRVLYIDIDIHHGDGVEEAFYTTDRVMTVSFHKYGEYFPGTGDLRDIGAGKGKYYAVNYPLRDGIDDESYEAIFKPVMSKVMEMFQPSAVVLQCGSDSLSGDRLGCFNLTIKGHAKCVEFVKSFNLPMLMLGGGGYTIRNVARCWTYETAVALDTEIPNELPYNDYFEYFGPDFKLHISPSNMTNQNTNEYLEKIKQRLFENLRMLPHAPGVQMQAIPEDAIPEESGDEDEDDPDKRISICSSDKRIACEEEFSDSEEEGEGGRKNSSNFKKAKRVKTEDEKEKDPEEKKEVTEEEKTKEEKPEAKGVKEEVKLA
Summary of the method: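 Fluorescence read-out (Ex 390/Em 460) after developer step, 30 min at 37° C, following a 60-min 37° C enzyme reaction. Test concentrations: HDAC1 kit, 100–10000 nM (three levels); recombinant human HDAC6, 0.1–1000 nM (five levels).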

Row | Compound | IC50 [1] | IC50 [2]
1 | CS(=O)(=O)N1CCC(n2c(=O)n(Cc3ccc(-c4nnc(C(F)F)o4)cc3F)c3ncccc32)CC1 [Compound 204, 3-(4-(5-(difluoromethyl)-1,3,4-oxadiazole-2-yl)-2-fluorobenzyl)-1-(1-(methylsulfonyl)piperidine-4-yl)-1,3-dihydro-2H-imidazo[4,5-b]pyridine-2-one] | 140 nM | > 10000 nM
2 | Cn1c(=O)n(Cc2ccc(-c3nnc(C(F)F)o3)cn2)c2ccc(-c3cn[nH]c3)cc21 [Compound 247, 1-((5-(5-(difluoromethyl)-1,3,4-oxadiazole-2-yl)pyridine-2-yl)methyl)-3-methyl-5-(1H-pyrazole-4-yl)-1,3-dihydro-2H-benzo[d]imidazole-2-one] | 9 nM | > 10000 nM
3 | O=c1n(Cc2ccc(-c3nnc(C(F)F)o3)cn2)c2cc(F)c(-c3ccncc3)cc2n1[C@@H]1CCN(C2COC2)C1 [Compound 287, (R)-1-((5-(5-(difluoromethyl)-1,3,4-oxadiazole-2-yl)pyridine-2-yl)methyl)-6-fluoro-3-(1-(oxetan-3-yl)pyrrolidine-3-yl)-5-(pyridine-4-yl)-1,3-dihydro-2H-benzo[d]imidazole-2-one] | 14 nM | > 10000 nM
4 | CC(=O)N1CCC(n2c(=O)n(Cc3ccc(-c4nnc(C(F)F)o4)cn3)c3cc(C(F)(F)F)ccc32)CC1 [Compound 176, 1-(1-acetylpiperidine-4-yl)-3-((5-(5-(difluoromethyl)-1,3,4-oxadiazole-2-yl)pyridine-2-yl)methyl)-5-(trifluoromethyl)-1,3-dihydro-2H-benzo[d]imidazole-2-one] | 42 nM | > 10000 nM
5 | O=c1n(Cc2ccc(-c3nnc(C(F)F)o3)cn2)c2ccccc2n1C1CCOCC1 [Compound 12, 1-((5-(5-(difluoromethyl)-1,3,4-oxadiazole-2-yl)pyridine-2-yl)methyl)-3-(tetrahydro-2H-pyran-4-yl)-1,3-dihydro-2H-benzo[d]imidazole-2-one] | 160 nM | > 10000 nM
6 | O=c1oc2cc(-c3cccnc3)ccc2n1Cc1ccc(-c2nnc(C(F)F)o2)cn1 [Compound 304, 3-((5-(5-(difluoromethyl)-1,3,4-oxadiazole-2-yl)pyridine-2-yl)methyl)-6-(pyridine-3-yl) benzo[d]oxazole-2(3H)-one] | 37 nM | > 10000 nM
7 | O=c1n(Cc2ccc(-c3nnc(C(F)F)o3)cc2)c2ccc(Cl)cc2n1C1CCN(C2COC2)CC1 [Compound 100, 5-chloro-1-(4-(5-(difluoromethyl)-1,3,4-oxadiazole-2-yl)benzyl)-3-(1-(oxetan-3-yl)piperidine-4-yl)-1,3-dihydro-2H-benzo[d]imidazole-2-one] | 39 nM | > 10000 nM
8 | CN1CCC(n2c(=O)n(Cc3ccc(-c4nnc(C(F)F)o4)cc3)c3cc(F)c(F)cc32)CC1 [Compound 95, 1-(4-(5-(difluoromethyl)-1,3,4-oxadiazole-2-yl)benzyl)-5,6-difluoro-3-(1-methylpiperidine-4-yl)-1,3-dihydro-2H-benzo[d]imidazole-2-one] | 51 nM | > 10000 nM
9 | CN1CCC(n2c(=O)n(Cc3ccc(-c4nnc(C(F)F)o4)cc3F)c3cc(F)c(-c4cccnc4)cc32)CC1 [Compound 117, 1-(4-(5-(difluoromethyl)-1,3,4-oxadiazole-2-yl)-2-fluorobenzyl)-6-fluoro-3-(1-methylpiperidine-4-yl)-5-(pyridine-3-yl)-1,3-dihydro-2H-benzo[d]imidazole-2-one] | 24 nM | > 10000 nM
10 | Cc1noc(C)c1-c1ccc2c(c1)n(Cc1ccc(-c3nnc(C(F)F)o3)cc1)c(=O)n2C1CCN(C)CC1 [Compound 131, 3-(4-(5-(difluoromethyl)-1,3,4-oxadiazole-2-yl)benzyl)-5-(3,5-dimethylisooxazole-4-yl)-1-(1-methylpiperidine-4-yl)-1,3-dihydro-2H-benzo[d]imidazole-2-one] | 606 nM | > 10000 nM
11 | O=c1sc2cc(-c3cccnc3)ccc2n1Cc1ccc(-c2nnc(C(F)F)o2)cn1 [Compound 231, 3-((5-(5-(difluoromethyl)-1,3,4-oxadiazole-2-yl)pyridine-2-yl)methyl)-6-(pyridine-3-yl) benzo[d]thiazole-2(3H)-one] | 9 nM | > 10000 nM
12 | CN1CC[C@H](n2c(=O)n(Cc3ccc(-c4nnc(C(F)F)o4)cn3)c3cc(F)c(-c4cccc5[nH]ccc45)cc32)C1 [Compound 270, (S)-1-((5-(5-(difluoromethyl)-1,3,4-oxadiazole-2-yl)pyridine-2-yl)methyl)-6-fluoro-5-(1H-indole-4-yl)-3-(1-methylpyrrolidine-3-yl)-1,3-dihydro-2H-benzo[d]imidazole-2-one] | 19 nM | > 10000 nM
13 | Cn1c(=O)n(Cc2ccc(-c3nnc(C(F)F)o3)cc2F)c2cc(F)ccc21 [Compound 143, 3-(4-(5-(difluoromethyl)-1,3,4-oxadiazole-2-yl)-2-fluorobenzyl)-5-fluoro-1-methyl-1,3-dihydro-2H-benzo[d]imidazole-2-one] | 71 nM | > 10000 nM
14 | O=c1n(Cc2ccc(-c3nnc(C(F)F)o3)cc2)c2cc(F)c(F)cc2n1C1CCN(C2COC2)CC1 [Compound 96, 1-(4-(5-(difluoromethyl)-1,3,4-oxadiazole-2-yl)benzyl)-5,6-difluoro-3-(1-(oxetan-3-yl)piperidine-4-yl)-1,3-dihydro-2H-benzo[d]imidazole-2-one] | 36 nM | > 10000 nM
15 | Cn1c(=O)n(Cc2ccc(-c3nnc(C(F)F)o3)cn2)c2cc(F)c(Br)cc21 [Compound 147, 5-bromo-1-((5-(5-(difluoromethyl)-1,3,4-oxadiazole-2-yl)pyridine-2-yl)methyl)-6-fluoro-3-methyl-1,3-dihydro-2H-benzo[d]imidazole-2-one] | 15 nM | > 10000 nM
16 | CN1CCC(n2c(=O)n(Cc3ccc(-c4nnc(C(F)F)o4)cc3F)c3cc(F)c(Br)cc32)CC1 [Compound 113, 5-bromo-1-(4-(5-(difluoromethyl)-1,3,4-oxadiazole-2-yl)-2-fluorobenzyl)-6-fluoro-3-(1-methylpiperidine-4-yl)-1,3-dihydro-2H-benzo[d]imidazole-2-one] | 65 nM | > 10000 nM
17 | CN1CCC(n2c(=O)n(Cc3ccc(-c4nnc(C(F)F)o4)cn3)c3cc(F)c(Br)cc32)CC1 [Compound 149, 5-bromo-1-((5-(5-(difluoromethyl)-1,3,4-oxadiazole-2-yl)pyridine-2-yl)methyl)-6-fluoro-3-(1-methylpiperidine-4-yl)-1,3-dihydro-2H-benzo[d]imidazole-2-one] | 40 nM | > 10000 nM
18 | CN1CC[C@@H](n2c(=O)n(Cc3ccc(-c4nnc(C(F)F)o4)cn3)c3cc(F)c(-c4cccc5[nH]ccc45)cc32)C1 [Compound 273, (R)-1-((5-(5-(difluoromethyl)-1,3,4-oxadiazole-2-yl)pyridine-2-yl)methyl)-6-fluoro-5-(1H-indole-4-yl)-3-(1-methylpyrrolidine-3-yl)-1,3-dihydro-2H-benzo[d]imidazole-2-one] | 14 nM | > 10000 nM
19 | Cn1c(=O)n(Cc2ccc(-c3nnc(C(F)F)o3)cn2)c2cc(F)c(-c3cnc(N4CCN(C5COC5)CC4)nc3)cc21 [Compound 343, 1-((5-(5-(difluoromethyl)-1,3,4-oxadiazole-2-yl)pyridine-2-yl)methyl)-6-fluoro-3-methy 1-5-(2-(4-(oxetan-3-yl)piperazine-1-yl)pyrimidine-5-yl)-1,3-dihydro-2H-benzo[d]imidazole-2-one] | 19 nM | > 10000 nM
20 | CN1CCC(n2c(=O)n(Cc3ccc(-c4nnc(C(F)F)o4)cc3)c3cc(-c4ccc(C(F)(F)F)cc4)ccc32)CC1 [Compound 129] | > 3000 nM | > 10000 nM
